Measured values taken from patent publication US6171808A, “Mutant luciferases” (priority 1995, dated 2001).

Tests used:
[1] = target: T1, Photinus pyralis luciferase, recombinant wild-type (601a) (Photinus pyralis, UniProt P08659); test: Km determination with respect to ATP, luminometric luciferase assay; assay type: biochemical; settings: 21° C., tricine pH7.8, 470 μM D-luciferin, 6.25 to 400 μM ATP
T1 construct: made in house; host or cells: E. coli JM109 (pPW601a, derived from pDR540 and the luc gene of pGEM-luc)
T1 sequence (P08659 whole entry): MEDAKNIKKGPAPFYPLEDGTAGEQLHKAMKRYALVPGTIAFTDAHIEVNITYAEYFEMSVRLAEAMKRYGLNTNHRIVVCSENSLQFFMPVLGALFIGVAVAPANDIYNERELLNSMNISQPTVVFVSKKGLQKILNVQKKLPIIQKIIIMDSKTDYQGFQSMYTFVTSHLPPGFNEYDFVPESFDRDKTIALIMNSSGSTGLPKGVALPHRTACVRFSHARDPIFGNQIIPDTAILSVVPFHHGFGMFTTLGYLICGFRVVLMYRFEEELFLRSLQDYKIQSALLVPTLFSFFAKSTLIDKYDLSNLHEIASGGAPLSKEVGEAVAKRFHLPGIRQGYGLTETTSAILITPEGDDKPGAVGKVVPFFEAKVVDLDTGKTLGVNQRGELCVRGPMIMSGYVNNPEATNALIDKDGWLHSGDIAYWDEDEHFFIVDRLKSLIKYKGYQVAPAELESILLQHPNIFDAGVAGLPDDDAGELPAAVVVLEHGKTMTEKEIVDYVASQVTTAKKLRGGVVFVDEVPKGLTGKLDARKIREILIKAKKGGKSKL

[2] = target: Photinus pyralis luciferase variant 601aK, E354K (thermostable mutant 354 lysine) (Photinus pyralis, UniProt P08659, E354K); settings: read-out: Km value with respect to ATP; 21° C., tricine pH7.8, 470 μM D-luciferin, 6.25 to 400 μM ATP
Sequence of Photinus pyralis luciferase variant 601aK, E354K (thermostable mutant 354 lysine) (P08659 whole entry E354K): as the sequence (P08659 whole entry) above, with E354K counted along it

[3] = target: T2, Photinus pyralis luciferase variant 601aG1, E270K (270 lysine Km change), SEQ ID No 2 with Xaa = lysine (Photinus pyralis, UniProt P08659, E270K); test: Km determination with respect to ATP, luminometric luciferase assay; assay type: biochemical; settings: read-out: Km value with respect to ATP; 21° C., tricine pH7.8, 470 μM D-luciferin, 6.25 to 400 μM ATP
T2 construct: made in house; host or cells: E. coli BL21 (DE3) (pPW601G1)
T2 sequence (P08659 whole entry E270K): as the sequence (P08659 whole entry) above, with E270K counted along it
Excerpt: The Km mutant was initially generated by hydroxylamine induced mutagenesis of the luc gene within pPW304 to provide plasmid 304 G1 bearing a single base change in the DNA sequence at 811 of SEQ ID No 1 resulting in an amino acid glutamate change to lysine at position 270. A 1.1 kb DNA fragment (BstE II/Stu I) was cloned from pPW304 and used to replace the corresponding fragment in pP601a to form pPW601G1, thus providing a luc gene encoding for luciferase without the four extra amino acids encoded by pPW304 (M not included from M-A-R-I-Q).

[4] = target: T3, Photinus pyralis luciferase double mutant 601aG1K, E270K + E354K, SEQ ID No 4 (Photinus pyralis, UniProt P08659, E270K/E354K); test: as above; assay type: biochemical; settings: read-out: Km value with respect to ATP; 21° C., tricine pH7.8, 470 μM D-luciferin, 6.25 to 400 μM ATP
T3 construct: made in house; host or cells: E. coli JM109 (pPW601aG1K, pDR540-derived)
T3 sequence (P08659 whole entry E270K/E354K): as the sequence (P08659 whole entry) above, with E270K, E354K counted along it

Structure (SMILES): Nc1ncnc2c1ncn2[C@@H]1O[C@H](COP(=O)(O)OP(=O)(O)OP(=O)(O)O)[C@@H](O)[C@H]1O [ATP, adenosine triphosphate]
- Km [1]: 66.1 µM
- Km [2]: 61.3 µM
- Km [3]: 28.7 µM
- Km [4]: 25.2 µM
